# Source: ChEMBL document CHEMBL1133448, “Computational studies on HIV-1 protease inhibitors: influence of calculated inhibitor-enzyme binding affinities on the statistical quality of 3D-QSAR CoMFA models” (J Med Chem, 2000)
# Molecular target: Human immunodeficiency virus type 1 protease (Human immunodeficiency virus 1, UniProt Q72874)
# Experiment: Inhibition of human immunodeficiency virus type 1 (HIV-1) protease enzyme.
row,IC50 [nM],SMILES
1,2950,CC(C)(C)OC(=O)N[C@@H](Cc1ccccc1)[C@@H](O)CCC(=O)NC1c2ccccc2C[C@@H]1O (stereo partly specified)
2,1.29,CC(C)(C)OC(=O)N[C@@H](Cc1ccccc1)[C@@H](O)/C=C(/Cc1ccccc1)C(=O)NC1c2ccccc2C[C@@H]1O (stereo partly specified)
3,589,CC(C)(C)OC(=O)N[C@@H](Cc1ccc(O)cc1)[C@@H](O)C1CCCC1C(=O)NCc1ccccc1 (stereo partly specified)
4,0.251,CC(C)(C)OC(=O)NC(Cc1ccccc1)[C@@H](O)CC(CSc1ccccc1)C(=O)NC1c2ccccc2C[C@@H]1O (stereo partly specified)
5,9.55,CC(C)(C)OC(=O)N[C@@H](Cc1ccccc1)[C@@H](O)C[C@@H](Cc1ccccc1)C(=O)NC1C=CC[C@@H]1O (stereo partly specified)
6,0.1,CC(C)(C)OC(=O)N[C@@H](Cc1ccccc1)[C@@H](O)C[C@@H](Cc1ccccc1)C(=O)NC1c2ccccc2C(O)[C@@H]1O (stereo partly specified)
7,27.5,C=CC[C@H](C[C@H](O)[C@H](Cc1ccccc1)NC(=O)OC(C)(C)C)C(=O)NC1c2ccccc2C[C@@H]1O (stereo partly specified)
8,66.1,COC(=O)C1Cc2ccccc2C1NC(=O)[C@H](Cc1ccccc1)C[C@H](O)[C@H](Cc1ccccc1)NC(=O)OC(C)(C)C (stereo partly specified)
9,33.9,CC(C)(C)OC(=O)N[C@@H](Cc1ccccc1)[C@@H](O)C[C@@H](Cc1ccccc1)C(=O)NC1CCc2ccccc21 (stereo partly specified)
10,562,CC(C)(C)OC(=O)N[C@@H](Cc1ccccc1)[C@@H](O)CC(=O)NC1c2ccccc2C[C@@H]1O (stereo partly specified)
11,0.191,CC(C)(C)OC(=O)N[C@@H](Cc1ccccc1)[C@@H](O)C[C@@H](CCCc1ccccc1)C(=O)NC1c2ccccc2C(O)[C@@H]1O (stereo partly specified)
12,0.692,O=C(NC1c2ccccc2C[C@@H]1O)[C@H](Cc1ccccc1)CC(O)C[C@@H](Cc1ccccc1)C(=O)NC1c2ccccc2C[C@@H]1O (stereo partly specified)
13,0.603,CC(C)(C)OC(=O)N[C@@H](Cc1ccccc1)[C@@H](O)C[C@@H](Cc1c(F)c(F)c(F)c(F)c1F)C(=O)NC1c2ccccc2C[C@@H]1O (stereo partly specified)
14,1260,CC(C)(C)OC(=O)N[C@@H](Cc1ccccc1)[C@@H](O)CC1(Cc2ccccc2)CCCN(C2c3ccccc3C[C@@H]2O)C1=O (stereo partly specified)
15,5.37,CC(C)(C)OC(=O)N[C@@H](Cc1ccccc1)[C@@H](O)C[C@H](C(=O)NC1c2ccccc2C[C@@H]1O)C(=O)c1ccccc1 (stereo partly specified)
16,0.525,CC(C)(C)OC(=O)N[C@@H](Cc1ccccc1)[C@@H](O)C[C@@H](Cc1ccncc1)C(=O)NC1c2ccccc2C[C@@H]1O (stereo partly specified)
17,0.178,CC(C)(C)OC(=O)N[C@@H](Cc1ccccc1)[C@@H](O)C[C@@H](Cc1ccccc1)C(=O)NC1c2ccccc2OC[C@@H]1O (stereo in doubt; 26)
18,40.7,CC(C)(C)OC(=O)N[C@@H](Cc1ccccc1)[C@@H](O)C[C@@H](Cc1ccccc1)C(=O)NC1c2ccccc2OC[C@@H]1O (stereo in doubt; 27)

row,SMILES,IC50 [nM]
1,O=C(N[C@@H](Cc1ccccc1)[C@@H](O)C[C@@H](Cc1ccccc1)C(=O)NC1c2ccccc2C[C@@H]1O)OC1CCOC1 (stereo partly specified),0.0603
2,CC(C)(C)OC(=O)N[C@@H](Cc1ccccc1)[C@@H](O)C[C@@H](Cc1ccc(O)cc1)C(=O)NC1c2ccccc2C[C@@H]1O (stereo partly specified),0.158
3,Cc1ccc(C[C@H](C[C@H](O)[C@H](Cc2ccccc2)NC(=O)OC(C)(C)C)C(=O)NC2c3ccccc3C[C@@H]2O)cc1 (stereo partly specified),0.288
4,CC(C)(C)OC(=O)N[C@@H](Cc1ccccc1)[C@@H](O)C[C@@H](Cc1ccccc1)C(=O)NC1c2ccccc2C[C@@H]1O (stereo partly specified),0.251
5,CC(C)(C)OC(=O)N[C@@H](Cc1ccccc1)[C@@H](O)C[C@@H](Cc1ccc(C(F)(F)F)cc1)C(=O)NC1c2ccccc2C[C@@H]1O (stereo partly specified),0.257
6,CC(C)(C)OC(=O)NC(Cc1ccccc1)[C@@H](O)CC(Cc1ccc([N+](=O)[O-])cc1)C(=O)NC1c2ccccc2C[C@@H]1O (stereo partly specified),0.269
7,CC(C)(C)OC(=O)NC(Cc1ccccc1)[C@@H](O)CC(Cc1ccc(N)cc1)C(=O)NC1c2ccccc2C[C@@H]1O (stereo partly specified),0.309
8,CC(C)(C)OC(=O)N[C@@H](Cc1ccccc1)[C@@H](O)C[C@@H](C/C=C/c1ccccc1)C(=O)NC1c2ccccc2C[C@@H]1O (stereo partly specified),0.229
